Data as given in paper PMC4869338 (Malaria Journal, 2016).
“And” between values parts separate entries of the source, which are not always exact repeats. Identical values can stand only once. “Also recorded” adds a separate entry of the source. Like-named read-outs stand apart in the source and are kept apart here.

Columns and labels:
[1] = tested on: primary human hepatocytes; assay: Primaquine metabolism in pooled primary human hepatocytes pre-treated with antidepressants; assay type: in vitro ADME; details: antidepressant 10 μM pre-treatment 15 min; primaquine 1 μM; 4-h incubation
Method: Cryopreserved, pooled, human, primary hepatocytes were flash thawed in a 37 °C bath for 1 min. One vial of the thawed hepatocytes (5 million cells/vial) was added to 40 ml of pre-warmed thawing buffer, mixed thoroughly by gentle pipetting, and centrifuged at 72×g for 6 min. The supernatant was then aspirated and the pellet resuspended in hepatocyte incubation buffer (InVitroGRO HI media, BioreclamationIVT, Baltimore, MD, USA). The hepatocytes were then seeded onto 12-well culture plates, approximately 7 × 10^5 hepatocytes/ml per well, and incubated in a humidified 5 % CO2/95 % air incubator for 30 min prior to the addition of compounds.
All reactions were stopped by adding an equal volume of acetonitrile. […] The supernatant was collected and 200 μl of sample was loaded on to a 96-well LC–MS/MS plate for analysis. Samples were analysed immediately after sample collection.

CYP2D6 = details: cited from earlier work
[2] = target: T1, Recombinant human CYP 2D6 (Homo sapiens, UniProt P10635); assay: biochemical
Method: The samples were centrifuged at 15,700×g at 4 °C for 10 min, supernatants collected and analysed by liquid chromatography/tandem mass spectrometry (LC–MS/MS).
Analyte peaks were detected and quantified using a TSQ Quantum triple quadrupole mass spectrometer (Thermo Fisher Scientific, Waltham, MA, USA). Mass spectrometry conditions were optimized for each analyte (see Additional file 1 for masses and ion transitions). […] Samples were analysed with electrospray ionization in positive ion mode (source temperature 350 °C) by selected reaction monitoring at a collision pressure of 1.0 mTorr. Analyte peaks were detected and quantified using the Xcalibur software package.

CYP2C19 = details: cited from earlier work
CYP1A2 = tested on: CYP1A2; parameters: method as in PMID 18691982; details: cited from earlier work
CYP3A4 = details: cited from earlier work
CYP2C9 = tested on: CYP2C9; parameters: method as in PMID 18691982; details: cited from earlier work
[3] = cited from earlier work
[4] = tested on: Plasmodium berghei sporozoites
Text: Drug suspensions were made and transferred to a 20-ml bottle, drawn into a 1-ml syringe, and delivered via oral feeder (18 gauge) to the designated recipient. […] Both liver and blood stages of P. berghei infections were monitored using the in vivo imaging system (IVIS) and flow cytometry as described in [29].

CYP 2D6 = details: in vivo; cited from earlier work
[5] = cited from earlier work; remark: listed apart in the source
[6] = humans; cited from earlier work
[7] = Mouse oral pharmacokinetics of primaquine and 5,6-orthoquinone with and without fluoxetine; details: mice; oral primaquine 20 mg/kg; fluoxetine 4 mg/kg/day for 3 days
Method: Analyte peaks were detected and quantified using a TSQ Quantum triple quadrupole mass spectrometer (Thermo Fisher Scientific, Waltham, MA, USA). […] Chromatographic separations were achieved using a Waters XTerra MS C18 (2.1 × 50 mm, 3.5 μm) column (Milford, MA, USA) with a Phenomenex (4 × 20 mm, 3.5 µm) guard column (Torrance, CA, USA) at a flow rate of 0.35 ml/min. A 7-min linear gradient from 5 to 95 % acetonitrile (0.1 % formic acid) was utilized. Samples were analysed with electrospray ionization in positive ion mode (source temperature 350 °C) by selected reaction monitoring at a collision pressure of 1.0 mTorr. Analyte peaks were detected and quantified using the Xcalibur software package.
Briefly, male, 9–12-weeks old, wild-type, C57BL/6 mice (Taconic Biosciences, Germantown, NY, USA) were used for pharmacokinetic evaluations. On arrival, animals were acclimated for 7 days in quarantine. The animals were housed in a cage maintained at a temperature range of 18–26 °C, 34–68 % relative humidity and a 12-h light/dark cycle. Food and water were provided ad libitum during quarantine and throughout the study. The animals were fed a standard rodent maintenance diet.
Pharmacokinetic studies were performed using oral administration. […] For each timepoint, animals were euthanized and plasma and liver samples collected. […] Supernatant was collected and analysed by LC–MS/MS analyses.

[8] = target: T1, Recombinant human CYP 2D6; details: sixty-minute incubation; previously reported; cited from earlier work
[9] = tested on: primary human hepatocytes; details: 240-min incubation; previously reported; cited from earlier work

T1 sequence (P10635 whole entry): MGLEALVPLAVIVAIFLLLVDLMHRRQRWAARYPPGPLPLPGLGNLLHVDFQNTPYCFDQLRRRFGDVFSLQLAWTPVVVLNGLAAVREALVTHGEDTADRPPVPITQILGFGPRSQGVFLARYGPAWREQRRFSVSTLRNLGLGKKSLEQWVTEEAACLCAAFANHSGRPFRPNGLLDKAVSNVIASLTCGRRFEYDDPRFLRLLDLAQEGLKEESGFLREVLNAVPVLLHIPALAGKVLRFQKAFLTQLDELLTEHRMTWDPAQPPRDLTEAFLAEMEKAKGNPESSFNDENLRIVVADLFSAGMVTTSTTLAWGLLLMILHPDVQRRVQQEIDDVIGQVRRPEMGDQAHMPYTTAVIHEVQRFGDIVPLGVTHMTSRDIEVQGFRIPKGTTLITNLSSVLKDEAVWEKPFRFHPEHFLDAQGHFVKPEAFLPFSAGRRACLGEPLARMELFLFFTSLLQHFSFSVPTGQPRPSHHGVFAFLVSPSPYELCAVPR

SMILES	Enzymes inhibited by antidepressant: CYP2D6 (CYP2D6)	IC50 [2]	Enzymes inhibited by antidepressant: CYP3A4 (CYP3A4)	Enzymes inhibited by antidepressant: CYP2C9 (CYP2C9)	Enzymes involved in biotransformation [3]	also measured
COc1ccc(C(CN(C)C)C2(O)CCCCC2)cc1 (stereo not drawn) [venlafaxine]	CYP2D6 (weak)	19.1 µM				inhibition of primaquine metabolism in hepatocytes [1]: no inhibition of primaquine metabolism
Fc1ccc([C@@H]2CCNC[C@H]2COc2ccc3c(c2)OCO3)cc1 [paroxetine]	CYP2D6 (strong), CYP1A2 (weak), CYP2C9 (weak), CYP2C19 (weak), CYP3A4 (weak)		CYP2D6 (strong), CYP1A2 (weak), CYP2C9 (weak), CYP2C19 (weak), CYP3A4 (weak)	CYP2D6 (strong), CYP1A2 (weak), CYP2C9 (weak), CYP2C19 (weak), CYP3A4 (weak)	CYP2D6 and CYP3A4	Enzymes inhibited by antidepressant: CYP2C19 (CYP2C19): CYP2D6 (strong), CYP1A2 (weak), CYP2C9 (weak), CYP2C19 (weak), CYP3A4 (weak); Enzymes inhibited by antidepressant: CYP1A2 (CYP1A2): CYP2D6 (strong), CYP1A2 (weak), CYP2C9 (weak), CYP2C19 (weak), CYP3A4 (weak)
CNCCC(Oc1ccc(C(F)(F)F)cc1)c1ccccc1 (stereo not drawn) [fluoxetine]	strong		weak to moderate	moderate	CYP2D6, CYP2C9, CYP2C19, and CYP3A4	effect of fluoxetine co-administration on primaquine anti-malarial efficacy ([4]; fluoxetine 4 mg/kg/day for 5 days with primaquine 20 mg/kg/day for 3 days): reduced primaquine anti-malarial efficacy; also recorded: negatively impacted primaquine efficacy; change of CYP 2D6 phenotype of human subjects (CYP 2D6): from extensive to poor metabolizers; Enzymes inhibited by antidepressant: CYP2C19 (CYP2C19): CYP2D6 (strong), CYP2C9 (moderate), CYP2C19, (weak to moderate), CYP3A4 (weak to moderate), CYP1A2 (weak); Enzymes inhibited by antidepressant: CYP1A2 (CYP1A2): weak; elimination half-life [5]: long
CCN(CC)CCCC(C)Nc1ccnc2cc(Cl)ccc12 (stereo not drawn) [chloroquine]						primaquine exposure on co-administration [6]: significantly higher primaquine exposure
CN(C)CCC[C@@]1(c2ccc(F)cc2)OCc2cc(C#N)ccc21 [escitalopram]	CYP2D6 (weak)	7.35 µM			CYP2C19, CYP2D6, and CYP3A4	
COc1cc(NC(C)CCCN)c2ncccc2c1 (stereo not drawn) [primaquine]						pharmacokinetics of parent primaquine upon co-administration with fluoxetine [7]: not drastically altered; blood stage parasitaemia status throughout the 31-day experiment ([4]; flow cytometry, P. berghei infected mice): parasitaemia-free; primaquine metabolism signal by CYP 2D6 [8]: > 80%; primaquine metabolism signal in hepatocytes [9]: ~ 40%
NCCC(Oc1ccc(C(F)(F)F)cc1)c1ccccc1 (stereo not drawn) [nor-fluoxetine]						CYP 2D6 inhibition by major metabolite of fluoxetine (CYP2D6; no reference given): potent CYP 2D6 inhibitor; elimination half-life ([5]; in vivo): long
CN[C@H]1CC[C@@H](c2ccc(Cl)c(Cl)c2)c2ccccc21 [sertraline]		4.35 µM		CYP2D6 (weak to moderate), CYP1A2 (weak), CYP2C9 (weak), CYP2C19 (weak), CYP3A4 (weak)	CYP2C9, CYP2C19, CYP2D6, and CYP3A4	
CN(C)CCCC1(c2ccc(F)cc2)OCc2cc(C#N)ccc21 (stereo not drawn) [citalopram]	CYP2D6 (weak)	9.28 µM			CYP2C19, CYP2D6, and CYP3A4	
CN(C)CC(c1ccc(O)cc1)C1(O)CCCCC1 (stereo not drawn) [desvenlafaxine]		~94 µM and 94.3 µM	CYP3A4 (weak)			
